For assay [1], the target named is T1, Carbonic anhydrase 1 (Homo sapiens, UniProt P00915). The assay can be described thus: Inhibition of human erythrocytes CA1 using 4-nitrophenylacetate as substrate by esterase assay.
Target sequence in this assay (P00915 whole entry): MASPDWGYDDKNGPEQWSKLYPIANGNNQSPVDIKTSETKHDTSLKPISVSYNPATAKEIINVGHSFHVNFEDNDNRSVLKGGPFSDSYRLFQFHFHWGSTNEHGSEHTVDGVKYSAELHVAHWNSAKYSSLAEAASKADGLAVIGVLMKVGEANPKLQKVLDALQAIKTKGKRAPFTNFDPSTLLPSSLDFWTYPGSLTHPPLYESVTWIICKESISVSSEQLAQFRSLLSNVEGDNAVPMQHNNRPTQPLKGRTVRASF
For a further assay, the target named is Carbonic anhydrase 2 (Homo sapiens, UniProt P00918). The assay can be described thus: Inhibition of human erythrocytes CA2 using 4-nitrophenylacetate as substrate by esterase assay. The settings on record: for pKi: read-out: Ki.
Assay [2] addresses T1, Carbonic anhydrase 1. The assay can be described thus: Competitive inhibition of human erythrocytes CA1 using 4-nitrophenylacetate as substrate by Lineweaver-Burk plot analysis.
Target sequence in this assay (P00915 2-261 limits assumed): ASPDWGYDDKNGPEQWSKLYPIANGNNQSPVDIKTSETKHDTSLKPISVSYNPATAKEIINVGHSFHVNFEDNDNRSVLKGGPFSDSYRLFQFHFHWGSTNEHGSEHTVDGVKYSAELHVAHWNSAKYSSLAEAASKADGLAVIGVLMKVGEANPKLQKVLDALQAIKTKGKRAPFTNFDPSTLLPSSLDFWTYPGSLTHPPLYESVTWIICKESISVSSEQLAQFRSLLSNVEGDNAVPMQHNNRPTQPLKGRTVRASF

The structures appear in SMILES notation. pKi: −log10 of the molar value. Calls of active or inactive are those of the source. The calls are words filed in the database; no cut-off is given here.

As usually defined, the pKi is the Ki on a negative log10 scale, so that one unit is a factor of ten.

For the molecule `Cc1ccc(S(=O)(=O)n2cc(Br)c(=O)[nH]c2=O)cc1`, the pKi was 4.97 at Carbonic anhydrase 1 [1] and 4.54 at Carbonic anhydrase 2. In addition, the inhibition mode result on Carbonic anhydrase 1 [2] was “Active”.
For the molecule `Oc1ccccc1`, the inhibition entry on Carbonic anhydrase 1 [2] is “Active”.
In the case of `Cn1ccc(=O)n(C)c1=O`, the values for the pKi on Carbonic anhydrase 1 [1] and on Carbonic anhydrase 2 were 3.50 and 3.78, respectively. For the same molecule, the inhibition mode entry on Carbonic anhydrase 1 [2] was “Active”.
`Oc1ccccc1O`: the inhibition entry at Carbonic anhydrase 1 [2] is “Active”.
With `Oc1cccc(O)c1`, the inhibition mode result on Carbonic anhydrase 1 [2] is “Active”.
For `O=c1[nH]cc(CO)c(=O)[nH]1`, the pKi on Carbonic anhydrase 1 [1] is 4.31. Besides, the Ki entry at Carbonic anhydrase 2 was “Not Active”.
Turning to `CC(=O)n1cc(Br)c(=O)[nH]c1=O`, the values for the pKi at Carbonic anhydrase 1 [1] and at Carbonic anhydrase 2 were 3.33 and 3.11, respectively. In addition, on Carbonic anhydrase 1 [2], the inhibition mode entry was “Active”.
`Cc1cc(O)nc(O)n1` showed a pKi on Carbonic anhydrase 1 [1] of 4.24. Moreover, on Carbonic anhydrase 2, the Ki result is listed as “Not Active”. The inhibition result at Carbonic anhydrase 1 [2] was “Active”.
Turning to `CS(=O)(=O)n1cc(Br)c(=O)[nH]c1=O`, the figures for the pKi at Carbonic anhydrase 1 [1] and at Carbonic anhydrase 2 were 3.37 and 3.19, respectively. Moreover, the inhibition mode entry on Carbonic anhydrase 1 [2] is “Active”.

Values taken from ChEMBL document CHEMBL3600346, “Synthesis and carbonic anhydrase inhibitory properties of novel uracil derivatives” (Bioorg Med Chem Lett, 2015).
